Laboratory results taken from US20090252754A1, “Vaccines containing the hiv tat protein as an adjuvant for the enhancement of cytotoxic t-cell responses” (priority 2003, published 2009).

How the values were obtained:
[1] = tested on: proteasomes purified from MIN-Tat and MIN-0; assay: In vitro degradation of CLG+5 epitope precursor by purified proteasomes (HPLC, IFN-γ ELISPOT of fractions); type: biochemical, human
Method: 500 μg of synthetic peptide were incubated with 127 μg of purified proteasomes in 300 μl of buffer (25 mM Tris HCL pH 7.4, 5 mM MgCl2, 500 μM EDTA pH 8.0, 1 mM DTT, 2 mM ATP) at 37° C. At the indicated time points, 60 μl of sample were collected and the reaction was stopped by adding 2 volumes of ethanol at 0° C.
Digestion mixtures were centrifuged at 5000 rpm for 5 minutes. 80 μl of supernatant were collected and peptide digests were separated by reverse-phase HPLC at the flow rate of 0.7 ml/min, as follows: linear gradient of 0-100% of solution B (acetonitrile 100% with 0.1% TFA) for 25 min, followed by linear gradient of 0-100% for solution A (water 100% with 0.1% TFA) for 5 min. The fractionation was simultaneously monitored at 210 and 280 nm. […]
Plates were incubated for 24 h at 37° C., 5% CO2 and then washed three times with PBS and three times with washing buffer (PBS 0.05% Tween 20) before 100 μl of biotinylated anti-IFN-γ MAb (1 μg/ml; Endogen, Woburn, Mass.) were added, and incubated at 37° C. for 60 min. […] Wells were washed, and individual IFN-γ producing cells were detected using ABC chromogen kit (Sigma, Saint Louise, Mo.). IFN-γ-secreting T cells were counted by direct visualisation. The number of specific IFN-γ-secreting T cells, expressed as spot-forming cells (SFC) per 10^6 cells, was calculated by subtracting the negative control value. […]

[2] = tested on: proteasome subunits (α2, PA28α, LMP2, LMP7, MECL1) in MIN and MON LCL's; assay: Western blot of proteasome subunits in lymphoblastoid cell lines expressing or treated with Tat; type: cell-based, human
Method: PG13 murine amphotropic packaging cell line^54 was cultured in DMEM supplemented with 10% FCS. Jurkat T cell transfectants (pRPneo-c and pRPneo-c-Tat)^22 were cultured in RPMI 1640 medium, supplemented with 10% FCS and 800 μg/ml neomycin (Sigma). Lymphoblastoid cell lines (LCL) were established by in vitro infection of normal B-lymphocytes from healthy donors with the B95.8 strain of EBV. LCL's were cultured in RPMI 1640 medium supplemented with 10% FCS.
MIN and MON LCL's were transduced with pBabePuro-Tat (MIN-Tat and MON-Tat) or pBabePuro (MIN-0 and MON-0) recombinant retroviruses by co-cultivation with packaging cell lines using transwell-clear tissue culture membranes. Subconfluent PG13 pBabePuro and PG13 pBabePuro-Tat cells, grown in the lower chamber, were co-cultivated in the presence of 8 μg/ml polybrene (Sigma) with MIN or MON LCL's (3×10^6/well) added to the upper chamber in 2.5 ml of RPMI 1640 medium supplemented with 10% FCS. After 48 hrs of co-cultivation, cells were harvested from the membranes and grown in culture medium containing puromycin (0.3 μg/ml) for 6 weeks. All cell lines were characterised by DNA-PCR, RT-PCR and Northern blot analysis.
(§1) Equal amounts of proteins were loaded on a 12% SDS-PAGE gel and electroblotted onto Protran nitrocellulose membranes (Schleicher & Schuell, Keene, Hampshire, USA). The blots were probed with antibodies specific for α2, LMP2, LMP7, MECL1, and PA28α subunits (Affinity, Exeter, UK) and developed by enhanced chemiluminescence (ECL, Amersham Pharmacia Biotech, Uppsala, SW).
To test the effect on proteasomes in cells after the up-take of exogenous Tat protein, MIN and MON LCL's were cultured in the absence or presence of increasing concentrations of biologically active Tat protein for 24 hours at 37° C. After treatment, the expression of the different subunits was analysed and compared to that of untreated cells. […] However, treatment with 0.1-1 μg/ml of Tat determined a down-regulation of LMP2 and an up-regulation of LMP7 and MECL1 as compared to untreated cells (FIG. 4).

LMP2 = LMP2 expression in splenocytes of mice treated i.m. with Tat (Western blot); type: in vivo; settings: Balb/c mice, 1 μg i.m., 3 consecutive treatments
Excerpt: as §1
Animal use was according to national and institutional guidelines. Seven-to-eight week old female Balb/c mice (Nossan, Milan, Italy) were injected with native monomeric biologically active Tat protein (1 μg) resuspended in degassed sterile PBS. Control mice were injected with oxidised Tat (1 μg) or with PBS alone. Samples (100 μl) were given by intramuscular (i.m.) injections in the quadriceps muscles of the posterior legs. Each experimental group consisted of three mice, and the experiment was repeated twice. Mice were boosted at days 11 and 20 after the first injection. Seven days after the last injection, animals were anaesthetised intraperitoneally (i.p.) with 100 μl of isotonic solution containing 1 mg of Inoketan (Virbac, Milan, Italy), and 200 μg Rompun (Bayer, Milan, Italy) and sacrificed to collect spleens. Mononuclear cells from individual spleens were purified using cells strainers, resuspended in PBS containing 20 mM EDTA, and treated with a red blood cells lysis buffer for 4 minutes at room temperature. […]

[3] = LCL's expressing endogenous Tat vs control cells
[4] = LCL's treated with 0.1-1 μg/ml of Tat, 24 hours, vs untreated

Substance: Tat: HIV-1 Tat protein from HTLV type IIIB isolate, expressed in E. Coli or endogenously in cells; wild type SEQ ID NO 284
- degradation of the CLG+5 peptide precursor ([1]; proteasomes from Tat-expressing cells (MIN-Tat) vs empty vector (MIN-0)): more efficiently
- generation of the immunogenic CLG peptide ([1]; proteasomes from Tat-expressing cells, 120 min digests, CLG-specific CTL ELISPOT): generate with more efficiency
- proteasome expression (α2-subunit) ([2]; LCL's expressing endogenous Tat (MIN-Tat, MON-Tat) vs control cells): No difference
- expression of LMP2 [2, 3]: marked down-regulation
- expression of LMP7 [2, 3]: up-regulation
- expression of MECL1 [2, 3]: up-regulation
- expression of PA28α regulator [2, 3]: no differences
- expression of LMP2 [2, 4]: down-regulation
- expression of LMP7 [2, 4]: up-regulation
- expression of MECL1 [2, 4]: up-regulation
- expression of the α2-subunit ([2]; MIN and MON LCL's cultured with exogenous Tat protein, 24 hours, vs untreated): No difference
- LMP2 expression in splenocytes (LMP2): down-regulation
